Read-outs that look alike come from different tables or passages of the source.
Molecular target: T1, ADAR1p110 (Homo sapiens, UniProt P55265)
T1 construct: HAT (N); FLAG (alternative preparation, not on the same molecule as HAT) (N); made in house; host or cells: Sf9 insect cells, baculovirus
T1 sequence (P55265 1-931 isoform P55265-5): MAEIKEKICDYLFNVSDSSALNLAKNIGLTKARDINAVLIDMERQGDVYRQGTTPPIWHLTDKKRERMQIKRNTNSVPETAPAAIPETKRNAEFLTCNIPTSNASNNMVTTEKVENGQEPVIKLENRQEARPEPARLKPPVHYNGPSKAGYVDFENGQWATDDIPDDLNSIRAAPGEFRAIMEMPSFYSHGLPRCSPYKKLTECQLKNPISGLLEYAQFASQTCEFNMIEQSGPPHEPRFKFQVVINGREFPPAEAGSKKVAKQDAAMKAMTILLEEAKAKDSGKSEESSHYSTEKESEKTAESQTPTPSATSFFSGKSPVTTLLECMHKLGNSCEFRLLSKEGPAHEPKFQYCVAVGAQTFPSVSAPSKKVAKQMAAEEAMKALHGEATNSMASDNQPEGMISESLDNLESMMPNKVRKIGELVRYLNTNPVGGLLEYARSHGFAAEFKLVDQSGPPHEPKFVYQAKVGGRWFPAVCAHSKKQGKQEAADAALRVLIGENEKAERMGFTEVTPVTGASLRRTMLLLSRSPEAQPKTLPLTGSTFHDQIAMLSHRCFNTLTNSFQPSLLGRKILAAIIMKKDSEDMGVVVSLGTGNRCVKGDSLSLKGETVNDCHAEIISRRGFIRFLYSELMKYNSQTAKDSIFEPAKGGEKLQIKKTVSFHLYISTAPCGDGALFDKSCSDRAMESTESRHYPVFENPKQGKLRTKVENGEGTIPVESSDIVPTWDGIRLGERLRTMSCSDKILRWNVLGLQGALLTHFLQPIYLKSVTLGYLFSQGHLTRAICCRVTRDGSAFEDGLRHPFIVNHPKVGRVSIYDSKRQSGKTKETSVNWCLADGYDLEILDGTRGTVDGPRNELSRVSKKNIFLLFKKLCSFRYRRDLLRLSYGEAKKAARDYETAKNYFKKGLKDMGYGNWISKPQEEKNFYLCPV
Assay: in vitro editing assay with recombinant ADAR1p110 and dsRNA or DNA:RNA substrates
Assay type: biochemical
Description: FIG. 26A-FIG. 26B show determination of IC50 by in vitro editing assay. In vitro editing assay using purified ADAR1p110 protein and two different substrates, matched (left) and mismatched (right) dsRNAs, was conducted in the presence of varying concentrations of compound #1 (FIG. 26A) or #13 (FIG. 26B) in order to estimate IC50 values for these compounds. In vitro editing was carried out using HAT-ADAR1p110 or HAT-ADAR2 recombinant protein (10 nM) and two different dsRNA substrates carrying a part of the CDK13 gene sequence (5 nM) at 37° C. for 2 hrs as described previously (12). Compounds were dissolved in 100% DMSO. The in vitro assay contained DMSO at final concentration of 16%.
The in vitro editing reaction mixture, containing 5 nM of telomere RNA:RNA duplex substrates and 75 nM of HAT-ADAR1p110-WT, FLAG-ADAR1p110-WT, or HA-ADAR1p110-EAA protein, was incubated at 37° C. for 2 h in in vitro editing buffer I (20 mM HEPES-KOH pH 7.5, 100 mM NaCl, 0.01% NP-40, 5% glycerol, 1 mM DTT). For editing of RNA:DNA hybrid substrates, in vitro editing buffer II (20 mM HEPES-KOH pH 7.5, 20 mM NaCl, 0.01% NP-40, 5% glycerol, 1 mM DTT) was used. Edited RNA or DNA strands were purified using Dynabeads MyOne Streptavidin C1 (Thermo Fisher Scientific). To remove opposite RNA or DNA strands, rNase H (NEB) or TURBO dNase (Thermo Fisher Scientific) was used, respectively. For sequencing of edited substrates, reverse transcription-PCR was carried out for RNA strands, while PCR was carried out for DNA strands. RT reactions were carried out using SuperScript III Reverse Transcriptase (Thermo Fisher Scientific), and PCR reactions were performed using Platinum Taq DNA polymerase (Thermo Fisher Scientific). PCR products were sequenced using a specific sequencing primer, and the ratio of A and G peaks in the chromatograms were analyzed by CodonCode Aligner (CodonCode Corporation).
The 54 compounds identified in the high-throughput screen were further tested in the in vitro editing assay described in Examples 1 and 2. The in vitro editing reaction mixture, containing 5 nM of telomere RNA:RNA duplex substrates and 75 nM of HAT-ADAR1p110-WT, FLAG-ADAR1p110-WT, or HA-ADAR1p110-EAA protein, was incubated at 37° C. for 2 h in in vitro editing buffer I (20 mM HEPES-KOH pH 7.5, 100 mM NaCl, 0.01% NP-40, 5% glycerol, 1 mM DTT) with 10 microM test compound. For editing of RNA:DNA hybrid substrates, in vitro editing buffer II (20 mM HEPES-KOH pH 7.5, 20 mM NaCl, 0.01% NP-40, 5% glycerol, 1 mM DTT) was used. Edited RNA or DNA strands were purified using Dynabeads MyOne Streptavidin C1 (Thermo Fisher Scientific). To remove opposite RNA or DNA strands, Rnase H (NEB) or TuRBO Dnase (Thermo Fisher Scientific) was used, respectively. For sequencing of edited substrates, reverse transcription-PCR was carried out for RNA strands, while PCR was carried out for DNA strands. RT reactions were carried out using SuperScript III Reverse Transcriptase (Thermo Fisher Scientific), and PCR reactions were performed using Platinum Taq DNA polymerase (Thermo Fisher Scientific). PCR products were sequenced using a specific sequencing primer, and the ratio of A and G peaks in the chromatograms were analyzed by CodonCode Aligner (CodonCode Corporation).

**Q.** N#Cc1ccc(NC(=O)c2sc3ccccc3c2Cl)cc1 [Compound #13, 3-chloro-N-(4-cyanophenyl)-1-benzothiophene-2-carboxamide] was tested. Which IC50 (DNA:RNA mismatched hybrid substrate, read-out: IC50 estimated by in vitro editing assay, DNA:mmRNA) did it give?
**A.** The IC50 was 30 to 100 µM.

**Q.** And the IC50 (dsRNAs (matched, mismatched) and DNA:RNA hybrids, read-out: IC50 values for ADAR1p110)?
**A.** Its IC50 is 7 to 40 µM.

**Q.** What about the “inhibition of editing of A:U matched dsRNA” value (matched dsRNA substrate, FIG. 25C, 10 microM test compound) of the same compound?
**A.** Its value is “preferentially inhibited matched adenosines”.

**Q.** And the IC50 (matched dsRNA substrate, read-out: IC50 estimated by in vitro editing assay, RNA:RNA)?
**A.** Its IC50 is 3 µM.

**Q.** What about the IC50 (mismatched dsRNA substrate, adenosine position 2, read-out: IC50 estimated by in vitro editing assay, RNA:mmRNA, Position 2) of the same compound?
**A.** The IC50 was 21 µM.

**Q.** And the IC50 (mismatched dsRNA substrate, adenosine position 5, read-out: IC50 estimated by in vitro editing assay, RNA:mmRNA, Position 5)?
**A.** The IC50 was 8.2 µM.

**Q.** And the IC50 (mismatched dsRNA substrate, adenosine position 6, read-out: IC50 estimated by in vitro editing assay, RNA:mmRNA, Position 6)?
**A.** The IC50 was 3.8 µM.

— patent publication US20250066864A1, “METHODS FOR IDENTIFYING ADAR1 INHIBITORS, AND COMPOSITIONS AND METHODS OF USE IN TREATING CANCER” (The Wistar Institute of Anatomy and Biology, priority 2021, published 2025)
